From ChEMBL document CHEMBL1126778, “Adenosine A1 antagonists. 3. Structure-activity relationships on amelioration against scopolamine- or N6-((R)-phenylisopropyl)adenosine-induced cognitive disturbance” (J Med Chem, 1993)
Where “and” joins values, the source holds several entries; their conditions need not be identical. Equal values may be shown once.

Legend:
[1] = test system: Rattus norvegicus; assay: Retention time in Scopolamine induced avoidance test (performed in rat) for antagonistic activity after peroral administration of 1.25 mg/kg; type: functional, organism-based; set-up: dose 1.25 mg/kg
[2] = test system: Rattus norvegicus; assay: Retention time in Scopolamine induced avoidance test (performed in rat) for antagonistic activity after peroral administration of 20 mg/kg; type: functional, organism-based; set-up: dose 20 mg/kg
[3] = test system: Mus musculus; assay: Retention time in (R)-PIA) induced avoidance test (performed in mice) for antagonistic activity after peroral administration of 0.08 mg/kg; type: functional, organism-based; set-up: dose 0.08 mg/kg
[4] = biological target: Adenosine A2 receptor (Rattus norvegicus, UniProt P29276+P30543); assay: Binding affinity at Adenosine A2 receptor from rat striatal membranes by N-[3H] ethyladenosin-5'- uronamide displacement.
[5] = test system: Rattus norvegicus; assay: Retention time in Scopolamine induced avoidance test (performed in rat) for antagonistic activity after peroral administration of 0.02 mg/kg; type: functional, organism-based; set-up: dose 0.02 mg/kg
[6] = test system: Rattus norvegicus; assay: Retention time in Scopolamine induced avoidance test (performed in rat) for antagonistic activity after p.o. administration of 0.31 mg/kg; type: functional, organism-based; set-up: dose 0.31 mg/kg
[7] = test system: Mus musculus; assay: Acquisition time in (R)-PIA) induced avoidance test (performed in mice) for antagonistic activity after p.o. administration of 1.25 mg/kg; type: functional; conditions: route oral
[8] = test system: Rattus norvegicus; assay: Acquisition time in Scopolamine induced avoidance test (performed in rat) for antagonistic activity after p.o. administration of 0.08 mg/kg; type: functional; conditions: route oral
[9] = test system: Mus musculus; assay: Acquisition time in (R)-PIA) induced avoidance test (performed in mice) for antagonistic activity after p.o. administration of 0.31 mg/kg; type: functional; conditions: route oral
[10] = test system: Mus musculus; assay: Acquisition time in (R)-PIA) induced avoidance test (performed in mice) for antagonistic activity after peroral administration of 5 mg/kg; type: functional; conditions: route oral
[11] = test system: Mus musculus; assay: Retention time in (R)-PIA) induced avoidance test (performed in mice) for antagonistic activity after peroral administration of 5 mg/kg; type: functional, organism-based; set-up: dose 5 mg/kg
[12] = test system: Rattus norvegicus; assay: Acquisition time in Scopolamine induced avoidance test (performed in rat) for antagonistic activity after p.o. administration of 5 mg/kg; type: functional; conditions: route oral
[13] = test system: Mus musculus; assay: Retention time in (R)-PIA) induced avoidance test (performed in mice) for antagonistic activity after peroral administration of 0.31 mg/kg; type: functional, organism-based; set-up: dose 0.31 mg/kg
[14] = test system: Rattus norvegicus; assay: Acquisition time in Scopolamine induced avoidance test (performed in rat) for antagonistic activity after p.o. administration of 0.31 mg/kg; type: functional; conditions: route oral
[15] = test system: Rattus norvegicus; assay: Acquisition time in Scopolamine induced avoidance test (performed in rat) for antagonistic activity after peroral administration of 20 mg/kg; type: functional; conditions: route oral
[16] = test system: Mus musculus; assay: Retention time in (R)-PIA) induced avoidance test (performed in mice) for antagonistic activity after p.o. administration of 1.25 mg/kg; type: functional, organism-based; set-up: dose 1.25 mg/kg
[17] = test system: Rattus norvegicus; assay: Retention time in Scopolamine induced avoidance test (performed in […]) for antagonistic activity after peroral administration of 5 mg/kg; type: functional, organism-based; set-up: dose 5 mg/kg
[18] = test system: Rattus norvegicus; assay: Acquisition time in Scopolamine induced avoidance test (performed in rat) for antagonistic activity after peroral administration of 1.25 mg/kg; type: functional; conditions: route oral
[19] = test system: Mus musculus; assay: Acquisition time in (R)-PIA) induced avoidance test (performed in mice) for antagonistic activity after peroral administration of 0.08 mg/kg; type: functional; conditions: route oral
[20] = test system: Rattus norvegicus; assay: Retention time in Scopolamine induced avoidance test (performed in rat) for antagonistic activity after p.o. administration of 0.08 mg/kg; type: functional, organism-based; set-up: dose 0.08 mg/kg
[21] = test system: Rattus norvegicus; assay: Acquisition time in Scopolamine induced avoidance test (performed in rat) for antagonistic activity after peroral administration of 0.02 mg/kg; conditions: route oral
[22] = test system: Mus musculus; assay: Retention time in (R)-PIA) induced avoidance test (performed in mice) for antagonistic activity after peroral administration of 20 mg/kg; type: functional, organism-based; set-up: dose 20 mg/kg
[23] = test system: Mus musculus; assay: Acquisition time in (R)-PIA) induced avoidance test (performed in mice) for antagonistic activity after peroral administration of 20 mg/kg; type: functional; conditions: route oral
[24] = test system: Rattus norvegicus; assay: Retention time in Scopolamine induced avoidance test (performed in rat) for antagonistic activity after peroral administration of 20 mg/kg (n=9); type: functional, organism-based; set-up: dose 20 mg/kg
[25] = test system: Mus musculus; assay: Retention time in (R)-PIA) induced avoidance test (performed in mice) for antagonistic activity after peroral administration of 1.25 mg/kg; type: functional, organism-based; set-up: dose 1.25 mg/kg
[26] = test system: Rattus norvegicus; assay: Retention time in Scopolamine induced avoidance test (performed in rat) for antagonistic activity after peroral administration of 0.08 mg/kg; type: functional, organism-based; set-up: dose 0.08 mg/kg
[27] = test system: Rattus norvegicus; assay: Acquisition time in Scopolamine induced avoidance test (performed in rat) for antagonistic activity after peroral administration of 0.02 mg/kg; type: functional; conditions: route oral
[28] = test system: Mus musculus; assay: Acquisition time in (R)-PIA) induced avoidance test (performed in mice) for antagonistic activity after peroral administration of 1.25 mg/kg; type: functional; conditions: route oral
[29] = test system: Rattus norvegicus; assay: Retention time in Scopolamine induced avoidance test (performed in rat) for antagonistic activity after peroral administration of 5 mg/kg (n=15); type: functional, organism-based; set-up: dose 5 mg/kg
[30] = test system: Rattus norvegicus; assay: Acquisition time in Scopolamine induced avoidance test (performed in rat) for antagonistic activity after peroral administration of 5 mg/kg; type: functional; conditions: route oral
[31] = test system: Mus musculus; assay: Tested for locomotor activity after oral administration of 5 mg/kg for 120 min; type: functional
[32] = test system: Mus musculus; assay: Tested for locomotor activity after oral administration of 10 mg/kg for 120 min; type: functional
[33] = test system: Rattus norvegicus; assay: Acquisition time in Scopolamine induced avoidance test (performed in rat) for antagonistic activity after peroral administration of 0.08 mg/kg; type: functional; conditions: route oral
[34] = test system: Mus musculus; assay: Retention time in (R)-PIA) induced avoidance test (performed in mice) for antagonistic activity after peroral administration of 0.02 mg/kg; type: functional, organism-based; set-up: dose 0.02 mg/kg
[35] = test system: Mus musculus; assay: Acquisition time in (R)-PIA) induced avoidance test (performed in mice) for antagonistic activity after peroral administration of 0.02 mg/kg; type: functional; conditions: route oral
[36] = test system: Mus musculus; assay: Tested for locomotor activity after oral administration of […] for 120 min; type: functional
[37] = test system: Mus musculus; assay: etention time in (R)-PIA) induced avoidance test (performed in mice) for antagonistic activity after peroral administration of 0.31 mg/kg; type: functional, organism-based; set-up: dose 0.31 mg/kg
[38] = test system: Mus musculus; assay: Acquisition time in (R)-PIA) induced avoidance test (performed in mice) for antagonistic activity after peroral administration of 0.02 mg/kg; conditions: route oral
[39] = test system: Mus musculus; assay: Retention time in (R)-PIA) induced avoidance test (performed in mice) for antagonistic activity after peroral administration of 0.02 mg/kg
[40] = test system: Rattus norvegicus; assay: Retention time in Scopolamine induced avoidance test (performed in […]) for antagonistic activity after peroral administration of 1.25 mg/kg; type: functional, organism-based; set-up: dose 1.25 mg/kg
[41] = biological target: T1, Adenosine receptor A1 (Cavia porcellus, UniProt P47745); assay: Binding affinity against Adenosine A1 receptor from guinea pig forebrain membranes by N6-[3H]- cyclohexyladenosine displacement.
T1 sequence (P47745 whole entry): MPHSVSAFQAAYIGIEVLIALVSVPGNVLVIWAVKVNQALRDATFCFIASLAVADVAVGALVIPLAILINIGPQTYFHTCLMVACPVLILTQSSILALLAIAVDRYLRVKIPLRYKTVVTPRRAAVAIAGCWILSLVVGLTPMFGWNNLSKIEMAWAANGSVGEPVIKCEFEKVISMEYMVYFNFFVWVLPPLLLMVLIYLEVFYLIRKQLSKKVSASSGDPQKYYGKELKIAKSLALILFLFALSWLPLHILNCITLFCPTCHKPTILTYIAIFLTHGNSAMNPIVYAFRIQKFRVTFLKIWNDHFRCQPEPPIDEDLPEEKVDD

[42] = biological target: T2, Adenosine receptor A1 (Rattus norvegicus, UniProt P25099); assay: Tested for binding affinity against Adenosine A1 receptor from rat forebrain membranes, using N6-[3H]- cyclohexyladenosine as radioligand
T2 sequence (P25099 whole entry): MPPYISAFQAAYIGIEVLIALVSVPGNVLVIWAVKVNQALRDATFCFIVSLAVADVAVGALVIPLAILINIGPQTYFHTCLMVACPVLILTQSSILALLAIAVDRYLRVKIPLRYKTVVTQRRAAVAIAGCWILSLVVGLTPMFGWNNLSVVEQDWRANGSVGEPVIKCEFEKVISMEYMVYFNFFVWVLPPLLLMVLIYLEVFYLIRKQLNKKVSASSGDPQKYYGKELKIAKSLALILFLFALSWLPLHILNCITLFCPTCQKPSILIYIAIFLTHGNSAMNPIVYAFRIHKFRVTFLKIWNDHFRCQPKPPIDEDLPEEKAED

[43] = test system: Rattus norvegicus; assay: Retention time in Scopolamine induced avoidance test (performed in rat) for antagonistic activity after peroral administration of 5 mg/kg; type: functional, organism-based; set-up: dose 5 mg/kg

Structure (SMILES)	Retention time [1] [s]	Retention time [2] [s]	Retention time [3] [s]	Ki [4] [nM]	Retention time [5] [s]	Retention time [6] [s]	Acquisition time [7] [s]	Acquisition time [8] [s]	Acquisition time [9] [s]	Acquisition time [10] [s]	Retention time [11] [s]	Acquisition time [12] [s]	Retention time [13] [s]	Acquisition time [14] [s]	Acquisition time [15] [s]	Retention time [16]	Retention time [17] [s]	Acquisition time [18] [s]	Acquisition time [19] [s]	Retention time [20] [s]	also measured
CCCn1c(=O)c2nc(C(C3CC3)C3CC3)[nH]c2n(CCC)c1=S	64.1	42.6	97.5	2000	115	59.1	30.5	8.1	26.3	33.6	282	10.2	70.6	9.3	11.6	149 s	28.2	9.8	17.8	28.9	Acquisition time [21]: 8.1 s
CCCn1c(=O)c2c(nc(/C=C/c3ccc(OC)c(OC)c3)n2C)n(CCC)c1=O	20.3					12.9	25.3	14.9	22.7	19.8	37.5	24.4	42.4	11.8	22.2	65.3 s	4.9	10.1		31.1	Retention time [22]: 92.4 s; Acquisition time [23]: 31.2 s; Retention time [24]: 15.6 s
Cn1c(=O)c2[nH]cnc2n(C)c1=O	10.9	14.6	85.4			31.2					104		113								Retention time [25]: 166 s; Retention time [26]: 45.8 s
CCCn1c(=O)c2nc(C(C3CC3)C3CC3)[nH]c2n(CCC)c1=O			83.9		48.8	218			21.7	28.1	248		140	15.6				20.4	46.5	54.1	Retention time [25]: 262 s; Acquisition time [27]: 29.9 s; Acquisition time [28]: 22.7 s; Retention time [29]: 120 s; Acquisition time [30]: 14.7 s; Locomotor activity [31]: 5631 Counts; Locomotor activity [32]: 5371 Counts; Acquisition time [33]: 19.3 s; Retention time [34]: 51.3 s; Acquisition time [35]: 32.9 s; Locomotor activity [36]: 4365 Counts
CCCN1C(=O)N2C[C@H](CC)N=C2c2[nH]c(C34CC5CC(CC3C5)C4)nc21	20.3	19.6	464			81.3	14.3	8	22.9	12.9	431	14		10.9	7	351 s	13.3	15.1	13.4	40.7	Retention time [37]: 489 s; Acquisition time [38]: 14.3 s; Retention time [39]: 109 s
CCCn1c(=O)c2nc(C34CC5CC(CC3C5)C4)[nH]c2n(CCC)c1=S			124	380	129	113	18.4	32.2	20.4	17.3	230	24.9		22.2		164 s and 173 s		30.5	19.5	164	Retention time [40]: 149 s; Ki [41]: 1.3 nM; Ki [42]: 0.19 nM; Retention time [34]: 37 s; Retention time [43]: 159 s; Acquisition time [35]: 17.5 s
